A word on the pIC50: it is the IC50 on a negative log10 scale, so that one unit is a factor of ten.

pIC50: −log10 of the molar value. Like-named read-outs stand apart in the source and are kept apart here. Where only a bound is given, the exact number is not on record here.

One assay concerns the target KRas G12C (Homo sapiens, UniProt P01116, C118S/C51S/C80L/G12C). The assay can be described thus: KRas G12C Modification Assay (LCMS detection of covalent adduct). The class given is binding. The procedure, abridged:
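Cys-light KRas G12C mutant protein incubated with compound in K-Ras assay buffer, reactions quenched at set time points with 25 mM acetic acid and analysed by intact-protein LC/MS on a C-3 column. Deconvoluted mass heights expressed as percent of control (POC) relative to compound-free protein.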

Assay [1] deals with NCI-H358 cells (express KRas G12C), Phospho-ERK. As to the kind of experiment: Cellular inhibition of KRas G12C: Phospho-ERK in NCI-H358 cells. The format is cell-based. To be noted: Homo sapiens. An outline of the steps:
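IC50 derived by 4-parameter fit of GAPDH-normalized pERK(Thr202/Tyr204) signal, as percent of DMSO control. Signal came from in-cell immunodetection with infrared secondaries after 3 h compound exposure of KRas G12C NCI-H358 cells at 0.5% DMSO.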

Setting [2] is: normalized percent of control, tested at 5 μM concentration for 3 hours.
[3] abbreviates: pERK(Thr202/Tyr204) normalized with GAPDH, NCI-H358 cells, 3 hours, read-out: IC50.
[4] abbreviates: NCI-H358, 3 h, pERK(Thr202/Tyr204) normalized with GAPDH, NCI-H358 cells, 3 hours, read-out: IC50.

For the molecule `C=CC(=O)N1CCN(c2nc(O[C@H](C)CN(C)C)nc3c2CCN(c2c(C)ccc4[nH]ncc24)C3)CC1` [Example 162, 1-[4-[2-[(1R)-2-(dimethylamino)-1-methyl-ethoxy]-7-(5-methyl-1H-indazol-4-yl)-6,8-dihydro-5H-pyrido[3,4-d]pyrimidin-4-yl]piperazin-1-yl]prop-2-en-1-one], the POC entry on KRas G12C (setting [2]) is “B (“B”>25% POC−≤50% POC)”. In addition, the negative-log IC50 (pIC50) in assay [1] (setting [3]) was < 6.00.
For the molecule `C=CC(=O)N1CCN(c2nc(OCCN(CC)CC)nc3c2CCN(c2c(C)ccc4[nH]ncc24)C3)CC1` [Example 163, 1-(4-(2-(2-(diethylamino)ethoxy)-7-(5-methyl-1H-indazol-4-yl)-5,6,7,8-tetrahydropyrido[3,4-d]pyrimidin-4-yl)piperazin-1-yl)prop-2-en-1-one], the POC entry at KRas G12C (setting [2]) is “C (“C”>50% POC)”. In addition, the pIC50 in assay [1] (setting [3]) is < 6.00.
As for `C=CC(=O)N1CCN(c2nc(OCCN3CCCCC3)nc3c2CCN(c2c(C)ccc4[nH]ncc24)C3)CC1` [Example 164], on KRas G12C (setting [2]), the POC entry is given as “C (“C”>50% POC)”. Besides, in assay [1] (setting [3]), the negative-log IC50 (pIC50) was < 6.00.
Consider `C=CC(=O)N1CCN(c2nc(OCCCN3CCOCC3)nc3c2CCN(c2c(F)c(O)cc4ccccc24)C3)CC1` [Example 165, 1-[4-[7-(2-fluoro-3-hydroxy-1-naphthyl)-2-(3-morpholinopropoxy)-6,8-dihydro-5H-pyrido[3,4-d]pyrimidin-4-yl]piperazin-1-yl]prop-2-en-1-one], for which, at KRas G12C (5 µM), the POC result was “C (key: “A”≤25% POC; “B”>25% POC−≤50% POC; “C”>50% POC)”. In assay [1] (NCI-H358, 3 h), the pIC50 was < 6.00.
For the molecule `C=CC(=O)N1CCN(c2nc(OCCCN3CCOCC3)nc3c2CCN(c2cc(O)cc4sc(C)nc24)C3)CC1` [Example 166, 1-[4-[7-(6-hydroxy-2-methyl-1,3-benzothiazol-4-yl)-2-(3-morpholinopropoxy)-6,8-dihydro-5H-pyrido[3,4-d]pyrimidin-4-yl]piperazin-1-yl]prop-2-en-1-one], the POC result at KRas G12C (5 µM) is recorded as “B (key: “A”≤25% POC; “B”>25% POC−≤50% POC; “C”>50% POC)”. For the same molecule, in assay [1] (NCI-H358, 3 h), the negative-log IC50 (pIC50) is < 6.00.
Turning to `C=CC(=O)N1CCN(c2nc(OCCCN3CCOCC3)nc3c2CCN(c2cc(O)cc4cc(C)[nH]c24)C3)CC1` [Example 167, 1-(4-(7-(5-hydroxy-2-methyl-1H-indol-7-yl)-2-(3-morpholinopropoxy)-5,6,7,8-tetrahydropyrido[3,4-d]pyrimidin-4-yl)piperazin-1-yl)prop-2-en-1-one], at KRas G12C (setting [2]), the POC result is given as “B (“B”>25% POC−≤50% POC)”. For the same molecule, the pIC50 in assay [1] (setting [3]) is < 6.00.
On to `C=CC(=O)N1CCN(c2nc(OCCCN3CCOCC3)nc3c2CCN(c2cc(O)cc4ccccc24)C3)C(CO)C1` (stereo not shown) [Example 168, 1-(3-(hydroxymethyl)-4-(7-(3-hydroxynaphthalen-1-yl)-2-(3-morpholinopropoxy)-5,6,7,8-tetrahydropyrido[3,4-d]pyrimidin-4-yl)piperazin-1-yl)prop-2-en-1-one], for which the POC result on KRas G12C (setting [2]) is recorded as “C (“C”>50% POC)”. In addition, the pIC50 in assay [1] (setting [3]) is < 6.00.
For `C=CC(=O)N1CCN(c2nc(OC[C@@H]3CCCN3C)nc3c2CCN(c2cc(O)cc4ccccc24)C3)C(CO)C1` (stereo partly drawn) [Example 169, 1-[3-(hydroxymethyl)-4-[7-(3-hydroxy-1-naphthyl)-2-[[(2S)-1-methylpyrrolidin-2-yl]methoxy]-6,8-dihydro-5H-pyrido[3,4-d]pyrimidin-4-yl]piperazin-1-yl]prop-2-en-1-one], the POC entry at KRas G12C (setting [2]) is “C (“C”>50% POC)”. In assay [1] (setting [4]), the negative-log IC50 (pIC50) is 6.00 to 10.00.
As for `C=CC(=O)N1CCN(c2nc(OCCN(C)C)nc3c2CCN(c2cc(O)cc4ccccc24)C3)CC1CC#N` (stereo not shown) [Example 170, 2-(1-acryloyl-4-(2-(2-(dimethylamino)ethoxy)-7-(3-hydroxynaphthalen-1-yl)-5,6,7,8-tetrahydropyrido[3,4-d]pyrimidin-4-yl)piperazin-2-yl)acetonitrile], on KRas G12C (setting [2]), the POC result is recorded as “C (“C”>50% POC)”. Moreover, the pIC50 in assay [1] (setting [3]) was 6.00 to 10.00.
Turning to `C=CC(=O)N1CCN(c2nc(OCCN(C)C)nc3c2CCN(c2cc(O)cc4ccccc24)C3)CC1CCO` (stereo not shown) [Example 171, 1-(4-(2-(2-(dimethylamino)ethoxy)-7-(3-hydroxynaphthalen-1-yl)-5,6,7,8-tetrahydropyrido[3,4-d]pyrimidin-4-yl)-2-(2-hydroxyethyl)piperazin-1-yl)prop-2-en-1-one], the POC result at KRas G12C (5 µM) was “C (key: “A”≤25% POC; “B”>25% POC−≤50% POC; “C”>50% POC)”. In assay [1] (NCI-H358, 3 h), the negative-log IC50 (pIC50) is < 6.00.
`C=CC(=O)N1CCN(c2nc(OCCN(C)C)nc3c2CCN(c2cc(O)cc4ccccc24)C3)C(CCO)C1` (stereo not shown) [Example 172, 1-(4-(2-(2-(dimethylamino)ethoxy)-7-(3-hydroxynaphthalen-1-yl)-5,6,7,8-tetrahydropyrido[3,4-d]pyrimidin-4-yl)-3-(2-hydroxyethyl)piperazin-1-yl)prop-2-en-1-one]: the POC result on KRas G12C (setting [2]) is on record as “C (“C”>50% POC)”. The pIC50 in assay [1] (setting [4]) is < 6.00.
In the case of `C=CC(=O)N1CCN(c2nc(OCCCN3CCOCC3)nc3c2CCN(c2c(C)c(O)cc4ccccc24)C3)CC1` [Example 173, 1-(4-(7-(3-hydroxy-2-methylnaphthalen-1-yl)-2-(3-morpholinopropoxy)-5,6,7,8-tetrahydropyrido[3,4-d]pyrimidin-4-yl)piperazin-1-yl)prop-2-en-1-one], on KRas G12C (setting [2]), the POC result is on record as “C (“C”>50% POC)”. In addition, the pIC50 in assay [1] (setting [3]) is < 6.00.
With `C=CC(=O)N1CCN(c2nc(OC[C@H]3CCC(C)(C)N3)nc3c2CCN(c2cc(O)cc4ccccc24)C3)CC1` [Example 174, (R)-1-(4-(2-((5,5-dimethylpyrrolidin-2-yl)methoxy)-7-(3-hydroxynaphthalen-1-yl)-5,6,7,8-tetrahydropyrido[3,4-d]pyrimidin-4-yl)piperazin-1-yl)prop-2-en-1-one], at KRas G12C (setting [2]), the POC result was “C (“C”>50% POC)”. Besides, the pIC50 in assay [1] (setting [4]) is < 6.00.
Turning to `C=CC(=O)N1CCN(c2nc(OC[C@@H]3CCCN3C)nc3c2CCN(c2c(C)c(O)cc4ccccc24)C3)CC1` [Example 175, (S)-1-(4-(7-(3-hydroxy-2-methylnaphthalen-1-yl)-2-((1-methylpyrrolidin-2-yl)methoxy)-5,6,7,8-tetrahydropyrido[3,4-d]pyrimidin-4-yl)piperazin-1-yl)prop-2-en-1-one], the POC entry at KRas G12C (setting [2]) was “C (“C”>50% POC)”. For the same molecule, the negative logarithm of the IC50 (pIC50) in assay [1] (setting [3]) is 6.00 to 10.00.
As for `C=CC(=O)N1CCN(c2nc(OCCN(C)C)nc3c2CCN(c2cc(O)cc4ccccc24)C3)C[C@@H]1CC#N` [Example 176, 2-[(2S)-4-[2-[2-(dimethylamino)ethoxy]-7-(3-hydroxy-1-naphthyl)-6,8-dihydro-5H-pyrido[3,4-d]pyrimidin-4-yl]-1-prop-2-enoyl-piperazin-2-yl]acetonitrile], the POC result at KRas G12C (setting [2]) is on record as “C (“C”>50% POC)”. The negative logarithm of the IC50 (pIC50) in assay [1] (setting [4]) is 6.00 to 10.00.
As for `C=CC(=O)N1CCN(c2nc(OC[C@@H]3CCN(C)C3)nc3c2CCN(c2cccc4ccccc24)C3)CC1CC#N` (stereo partly drawn) [Example 177, 2-[4-[2-[[(3R)-1-methylpyrrolidin-3-yl]methoxy]-7-(1-naphthyl)-6,8-dihydro-5H-pyrido[3,4-d]pyrimidin-4-yl]-1-prop-2-enoyl-piperazin-2-yl]acetonitrile], at KRas G12C (setting [2]), the POC entry was “C (“C”>50% POC)”. In assay [1] (setting [3]), the pIC50 was 6.00 to 10.00.
In the case of `C=CC(=O)N1CCN(c2nc(OC[C@H]3CCCN3C)nc3c2CCN(c2cc(O)cc4ccccc24)C3)CC1CC#N` (stereo partly drawn) [Example 178, 2-[4-[7-(3-hydroxy-1-naphthyl)-2-[[(2R)-1-methylpyrrolidin-2-yl]methoxy]-6,8-dihydro-5H-pyrido[3,4-d]pyrimidin-4-yl]-1-prop-2-enoyl-piperazin-2-yl]acetonitrile], at KRas G12C (setting [2]), the POC result is recorded as “C (“C”>50% POC)”. For the same molecule, in assay [1] (setting [4]), the pIC50 is 6.00 to 10.00.
